According to patent US12194024B2, “Pharmaceutical composition of MDM2 inhibitor and use thereof for preventing and/or treating disease” (ASCENTAGE PHARMA (SUZHOU) CO., LTD., priority 2019, dated 2025):

Experiments:
[1] = system: human MOLM-13 (AML) xenograft tumor; assay: Systemic MOLM-13 AML mouse xenograft model; format: in vivo, NOD SCID mice
Text: The comparison among three or more groups uses one-way ANOVA. If the F value has a significant difference, multiple comparisons should be carried out after the ANOVA analysis. All data analysis uses SPSS 18.0. Prism (the sixth version) is used for graphing. Attune N×T flow cytometer (Thermo Fisher Scientific Inc.) is used for analyzing tumor infiltrating lymphocytes. Data acquisition and analysis use Analyst Software 1.6.3 work station (AB sciex, Ontario, Canada). For MOLM-13 systemic model, the death date of the last mouse is used for analyzing the median total survival and generating the Kaplan-Meier curve. Logarithmic rank test and Bonferroni multiple test are used for comparing the survival curves of different treatment groups.
For systemic AML model, six- to eight-week-old female NOD SCID mice are pretreated with cyclophosphamide (150 mg/kg, intraperitoneally) continuously for two days. Then the MOLM-13 systemic AML xenograft model is established by inoculating 1×10^7 cells into the caudal vein intravenously.
For systemic AML model, the six- to eight-week-old female NOD SCID mice are pretreated with cyclophosphamide (150 mg/kg, intraperitoneally) continuously for two days. Then the MOLM-13 systemic AML xenograft model is established by inoculating 1×10^7 cells into the caudal vein intravenously. Cells grow 3 days, then are randomly divided into groups for treatment of a single drug or drugs in combination using a carrier, compound 2 (50 mg/kg, is taken orally each day for 7 days), and Aza (1.5 mg/kg, intravenous injection each day for 7 days). In the treatment process and after the treatment is completed, the mice are monitored for the occurrence of hind leg paresis (HLP) or the abdominal swelling caused by disease progression, and a body weight loss >20%.
A systemic MOLM-13 mouse xenograft model is established, and the anti-leukemia effect of compound 2 following the administration regimen of 80 mg/kg dosage, orally (po), and once every two days (q2d) is evaluated in the model (corresponding to the number 57 regimen in table 7). The experiment has two groups, and 15 animals in each group, in one group, 5 animals are used for the analysis of the proportion of CD45+ AML cells, and the remaining 10 animals are used for recording the living condition of the mice. 18 days after the cell inoculation, according to the experimental regimen, 5 animals are selected randomly from each group, bone marrow and spleen are collected, the proportion of human CD45+ AML cells in bone marrow and spleen is analyzed using flow cytometry to evaluate the disease burden of animals.
Systemic tumor model is established by inoculating MOLM-13 tumor cells through caudal vein, the administration starts on the third day after the cell inoculation, and the day of the administration is defined as the first day. Compound 2 is administered following 30 mg/kg, q2d regimens for 21 days. Azacitidine is administered following 1.5 mg/kg, qd regimens for seven days (corresponding to the number 81 regimen in table 7). […]

[2] = system: human A375 cutaneous melanoma xenograft tumor; assay: Subcutaneous A375 cutaneous melanoma xenograft model; format: in vivo, BALB/c Nude mice
Text: The subcutaneous xenograft tumor model of human tumor immuno-deficient mice is established by the cell inoculation method (reference can be made to Gould S E et al., Translational value of mouse models in oncology drug development, Nature medicine, 2015 21, 431-439, and Souers A J et al., ABT-199, a potent and selective BCL-2 inhibitor, achieves antitumor activity while sparing platelets, Nature medicine, 2012 19.202-208): tumor cells at logarithmic phase are collected, then are resuspended in 1×PBS after being counted, the concentration of the cell suspension is adjusted to 2.5-5×10^7/mL. Tumor cells are subcutaneously inoculated to right-side back of the immuno-deficient mice using a 1 mL syringe (4th needle) at 5-10×10^6/0.2 mL/mouse (experimental animals are purchased from Beijing Vital River Laboratory Animal Technology Co., Ltd. SCXK (Beijing) 2016-0006). All the experimental operations of animals strictly abide by the usage and management standard of experimental animals of GenePharma Co., Ltd. and Suzhou Yasheng Pharmaceutical Co., Ltd. The calculations of related parameters make reference to “Technical guidelines for non-clinical research of cytotoxic anti-tumor drugs” of China CFDA.
The tumor diameter is measured twice using a vernier caliper each week. The computational formula of the tumor volume (TV) is: TV=a×b^2/2. In the computational formula, a and b represent the length and width of the tumor measurement respectively. The computational formula of the relative tumor volume (RTV) is: RTV=VtN1. In the computational formula, V1 is the tumor volume when being grouped and administered, and Vt is the tumor volume when being measured at a certain day after the administration.
The evaluation index of the anti-tumor activity is the relative tumor proliferation rate T/C (%), and the computational formulae respectively are: the relative tumor proliferation rate T/C (%)=(TRTV/CRTV)×100%, TRTV is the RTV of the treatment groups, and CRTV is the RTV of the vehicle control groups. The tumor remission rate (%) is derived by dividing the number of SD (Stable Disease), PR (Partial response) and CR (Complete response) appearing in the tumor bearing mice after treatment by the total number of mice in the group×100%. […]

[3] = 80 mg/kg, p.o., q2d × 3 w, versus vehicle
[4] = 80 mg/kg, po, q2d, 18 days after cell inoculation

`CCN1[C@@H](C(=O)NC23CCC(C(=O)O)(CC2)CC3)[C@H](c2cccc(Cl)c2F)[C@]2(C(=O)Nc3cc(Cl)ccc32)C12CCCCC2` [Compound 2] was tested, and the Median survival ([1]; 80 mg/kg, p.o., q2d × 3 w, vehicle 18.5 days) was 37.0 days, the “Prolonged days of survival” value [1, 3] was 18.5 days and the “prolongation of median survival” value [1, 3] was 100%. The “proportion of human CD45+ AML cells in bone marrow” value [1, 4] was “less than 0.1%”, the “proportion of human CD45+ AML cells in spleen” value [1, 4] was “less than 0.1%” and the “Median survival” value ([1]; Compound 2 30 mg/kg q2d 21 days, Azacitidine 1.5 mg/kg qd seven days, vehicle 16 days) was 24 days. For the same compound, the “Prolonged survival” value ([1]; Compound 2 30 mg/kg q2d 21 days, Azacitidine 1.5 mg/kg qd seven days, versus vehicle) was 8 days, the minimum effective dosage ([1]; compound 2 alone, human MOLM-13 systemic xenograft) was 20 mg/kg and the “T/C (%) @ D18” value ([2]; Compound 2 50 mg/kg PO QD × 7D, Trametinib 1 mg/kg, Dabrafenib 30 mg/kg PO QD × 21D) was 58.25%. The “RTV @ D18 (Mean ± SEM)” value ([2]; Compound 2 50 mg/kg PO QD × 7D, Trametinib 1 mg/kg, Dabrafenib 30 mg/kg PO QD × 21D, vehicle 17.36 ± 1.33) was 10.11 ± 1.83, the “DCR (%)” value ([2]; disease control rate, CR, PR or SD by mRECIST) was 0% and the “ORR (%)” value ([2]; objective response rate, CR or PR by mRECIST) was 0%.
